Experimental findings from US9902709B2, “Polysubstituted pyridine compound, preparation method, use and pharmaceutical composition” (PEKING UNIVERSITY FOUNDER GROUP CO., LTD., priority 2014, dated 2018) are described below.

For data set [1], the system named is SK-OV-3 human ovarian cancer cell strain. Description: In vitro anti-proliferation of tumor cells (CCK-8), SK-OV-3. It counts as cell-based. The note with it: SK-OV-3, 72 hours. How it is done: (§1) Experimental Example 2: Determination of the Compounds According to the Present Invention for IC50 of the In Vitro Anti-Proliferation of Tumor Cells
SK-OV-3 human ovarian cancer cell strain (purchased from Shanghai Institute of Cell Biology, Chinese Academy of Sciences);
(§2) Preparation of a compound: the compound was diluted with DMSO to a final concentration of 10 mM.
(§3) a) Cells in logarithmic growth phase were collected, counted, and re-suspended in complete medium. The concentration of cells was adjusted to a suitable concentration (determined depending on the result of optimization experiment of cell density), and the cells were seeded to a 96-well plate at 100 μl cell suspension per well. The cells were incubated in an incubator at 37° C., 100% relative humidity, 5% CO2 for 24 hours.
(§4) b) A test compound was diluted with the culture medium to 500 μM, and then gradient dilution was performed for 8 times. Cells were added at 25 μl/well. The final concentrations of the compound was in a range from 100 μM and 0 μM, 4-fold diluted, including 10 concentrations.
(§5) c) The cells were incubated in an incubator at 37° C., 100% relative humidity, 5% CO2 for 72 hours.
(§6) d) The culture medium was withdraw and discarded, the complete medium containing 10% CCK-8 was added, and then the cells were incubated in an incubator at 37° C. for 2-4 hours.
(§7) IC50 curve was fitted and IC50 value was calculated by professional software GraphPad Prism 5.0.
(§8) In the experiment, the compounds according to the present invention were determined for their IC50 values of in vitro anti-proliferation of tumor cell strains. The final concentrations of the compounds was in a range from 100 μM and 0 μM, 4-fold diluted, including 10 concentrations.

The subject of data set [2] is NCI-H460 Human large cell lung cancer cell strain. Description: In vitro anti-proliferation of tumor cells (CCK-8), NCI-H460. It counts as cell-based. The note with it: NCI-H460, 72 hours. How it is done:
as §1
NCI-H460 Human large cell lung cancer cell strain (purchased from Shanghai Institute of Cell Biology, Chinese Academy of Sciences);
as §2, §3, §4, §5, §6, §7, §8

The subject of data set [3] is MiaPaCa-2 human pancreatic cancer cell strain. Description: In vitro anti-proliferation of tumor cells (CCK-8), MiaPaCa-2. The class given is cell-based. The note with it: MIA PaCa-2, MiaPaCa-2, 72 hours. How it is done: as §1
MiaPaCa-2 human pancreatic cancer cell strain (purchased from American ATCC);
as §2, §3, §4, §5, §6, §7, §8

The subject of data set [4] is HCT116 human colon cancer cell strain. Description: In vitro anti-proliferation of tumor cells (CCK-8), HCT-116. The class given is cell-based. Particulars: HCT-116, 72 hours. How it is done: as §1
HCT116 human colon cancer cell strain (purchased from Shanghai Institute of Cell Biology, Chinese Academy of Sciences);
as §2, §3, §4, §5, §6, §7, §8

The test system of data set [5] is HepG2 human liver cancer cell strain. Description: In vitro anti-proliferation of tumor cells (CCK-8), HepG2. The note with it: HepG2, 72 hours. The class given is cell-based. How it is done: as §1
HepG2 human liver cancer cell strain (purchased from Shanghai Institute of Cell Biology, Chinese Academy of Sciences);
as §2, §3, §4, §5, §6, §7, §8

The subject of data set [6] is A498 human renal carcinoma cell strain. Description: In vitro anti-proliferation of tumor cells (CCK-8), A498. The class given is cell-based. Particulars: A498, 72 hours. How it is done: as §1
A498 human renal carcinoma cell strain (purchased from Shanghai Institute of Cell Biology, Chinese Academy of Sciences);
as §2, §3, §4, §5, §6, §7, §8

Data set [7] has as its system MDA-MB-231 human mammary cancer cell strain. Description: In vitro anti-proliferation of tumor cells (CCK-8), MDA-MB-231. It counts as cell-based. The note with it: for IC50: Homo sapiens, MDA-MB-231, 72 hours, CCK-8. How it is done: as §1
MDA-MB-231 human mammary cancer cell strain (purchased from Shanghai Institute of Cell Biology, Chinese Academy of Sciences);
as §2, §3, §4, §5, §6, §7, §8

Data set [8] is described as follows: Pharmacokinetics in mice. The class given is in vivo. The note with it: female, plasma, CD-1 mouse; for bioavailability: PO 5 mg/kg vs IV 1 mg/kg, read-out: F (oral bioavailability); for AUC(0-t): read-out: AUClast (area under the curve). How it is done: Administration route: intravenous injection (IV); per os (PO).
Fasting condition: free access to water, no fasting.
The mice were weighed before administration, and the administration volume was calculated based on their body weights (IV group: 4 mL/kg; PO group: 10 mL/kg).
Administration route and dose: Intravenous (IV) group: 1 mg/kg; Oral (PO) group: 5 mg/kg.
Animal grouping: 3 mice/group, an IV group and a PO group for each test compound.
After administration, 30 μL whole blood was collected from rim of the eyes of mice in the IV group at each pre-determined time point (5 min, 15 min, 30 min, 1 h, 2 h, 4 h, 8 h, 24 h), and 30 μL whole blood was collected from rim of the eyes of mice in the PO group at each pre-determined time point (15 min, 30 min, 1 h, 2 h, 4 h, 8 h, 24 h). The whole blood was centrifuged (6,000 rpm, 5 min) to get blood plasma. All the blood plasma samples were stored in a refrigerator of −80° C. for further analysis.
Conditions of LC/MS/MS was as follows:
Pharmacokinetic parameters were estimated according to non-compartment model (calculated by WinNonlin software): […]
IV paramater: t1/2 (hr); C0 (ng/mL); AUClast (hr*ng/mL); AUCInf (hr*ng/mL); AUC Extr (%); Vz (L/kg); Vss (L/kg); CL (mL/min/kg); MRT (hr).
PO parameter: t1/2 (hr); tmax (hr); Cmax (ng/mL); AUClast (hr*ng/mL); AUCInf (hr*ng/mL); AUC Extr (%); MRT (hr); AUC/D (hr*mg/mL); F (%).

In data set [9] the test system is HL-60 human acute myeloid leukemia cell strain. In words: In vitro anti-proliferation of tumor cells (CCK-8), HL-60. Particulars: HL-60, 72 hours. The class given is cell-based. How it is done: as §1
HL-60 human acute myeloid leukemia cell strain (purchased from Shanghai Institute of Cell Biology, Chinese Academy of Sciences);
as §2, §3, §4, §5, §6, §7, §8

Data set [10] relates to 786-O human renal clear cell carcinoma cell strain. In words: In vitro anti-proliferation of tumor cells (CCK-8), 786-O. The class given is cell-based. The note with it: 786-0, 72 hours. How it is done: as §1
786-O human renal clear cell carcinoma cell strain (purchased from Shanghai Institute of Cell Biology, Chinese Academy of Sciences);
as §2, §3, §4, §5, §6, §7, §8

Setting [11] is: PO 5 mg/kg, average of three mice.

Structures are written as SMILES.

Regarding `CNC(=O)c1cc(Oc2ccc(NC(=O)Nc3ccc(Cl)c(C(F)(F)F)c3)cc2)ccn1` [Comparative example 1, Sorafenib, reference compound], the IC50 in [1] amounted to 17.9 µM; in data set [2] it was 1.27 µM; in data set [3] it was 3.06 µM; in data set [4], 4.56 µM; in data set [5], 0.947 µM; in data set [6] it was 5.49 µM. The figures for the IC50 in data set [7], in data set [9] and in data set [10] were 10 µM, 22 µM and 4.51 µM, respectively. In addition, the bioavailability in [8] is 78.6%. Moreover, the AUC(0-t) in [8] (setting [11]) amounted to 18900 ng·h/mL.
`Cn1cc(-c2nccc(Oc3ccc(NC(=O)Nc4ccc(Cl)c(C(F)(F)F)c4)cc3)c2Cl)cn1` [Example 2, 1-(4-chloro-3-(trifluoromethyl)phenyl)-3-(4-(3-chloro-2-(1-methyl-pyrazol-4-yl)-pyridin-4-yl-oxy)phenyl)urea]: the IC50 in data set [1] came to 5.76 µM; in data set [2], 1.05 µM; in [3] it was 2.34 µM; in [4] it was 3.16 µM; in [5], 0.808 µM; in [6] it was 4.71 µM. The IC50 was found to be 3.05 µM in data set [7], 18.2 µM in data set [9] and 2.77 µM in data set [10]. Also, the “IC50 as fold of that of Sorafenib” value in data set [7] (MDA-MB-231 cell line) turned out to be 0.30 fold. Moreover, in [8], the bioavailability is 82.9%. Moreover, the AUC(0-t) in [8] (setting [11]) is 56600 ng·h/mL. The Cmax in data set [8] (PO 5 mg/kg, average of three mice, read-out: Cmax (peak concentration)) was found to be 3010 ng/mL.
